Results on one molecule are retold here after patent US20060241082A1, “Modulating vesicular monoamine transporter trafficking and function: a novel approach for the treatment of parkinson's disease” (priority 2002, published 2006).

Test [1] deals with VMAT-2. As to the kind of experiment: VMAT-2 immunoreactivity in striatal subcellular fractions of treated mice (Western blot). Format: in vivo, mouse. The following applies: methamphetamine 4 x 10 mg/kg s.c., 1 h. On the procedure: Fresh striatal tissue was homogenized in ice-cold 0.32 M sucrose and centrifuged (800×g for 12 min: 4° C.).
VMAT-2 antibody was kindly donated by Dr. John Haycock at the Louisiana State University, New Orleans, La. (Antibody can be purchased from Chemicon, Temecula, Calif. and the reagent # is AB1767). Binding of VMAT-2 antibody was performed using 60 μl of whole synaptosomal, plasmalemmal membrane or vesicle subcellular fractions. Samples were added to 20 μl of loading buffer (final concentration: 2.25% SDS, 18% glycerol, 180 mM Tris Base (pH 6.8), 10% β-mercaptoethanol and bromophenol blue). Approximately 60 μg P2, 40 μg protein P3, and 20 μg protein S3 were loaded per well in a 10% SDS-polyacrylamide gel. Following electrophoresis, samples were transferred to polyvinylidene difluoride hybridization transfer membrane (New England Nuclear (NEN), Boston, Mass.). All subsequent incubation steps were performed at room temperature while shaking. Each membrane was first blocked for 2 h in 100 ml of Tris buffer saline with tween (TBST; 250 mM NaCl, 50 mM tris pH 7.4 and 0.05% tween 20) containing 5% nonfat dry milk. Each membrane was then incubated with anti-VMAT-2 antibody (1:4000 dilution) in 13 ml of TBST with 5% milk for 1 h and then washed 5 times (2×1 min wash: 3×5 min wash) in 70 ml TBST with 5% milk. The membranes then were incubated for 1 h with the goat F (ab′)2 anti-rabbit immunoglobulin antibody (Biosource International, Camarillo, Calif.) at a 1:2000 dilution in TBST with 5% milk. This secondary antibody had been affinity-isolated, preabsorbed with human immunoglobulin, and conjugated with horseradish peroxidase. The membranes were then washed 5 times (2×1 min wash: 3×5 min) with 70 ml TBST, and then developed with Renaissance Western Blot Chemiluminescence's Reagent Pus (NEN, Boston, Mass.), according to manufacturer specification. […] Bands on blots were quantified by densitometry measuring net intensity (the sum of the background-subtracted pixel values in the band area) using Kodak 1D image-analysis software.
On the technique in general: Immunoblotting shows a protein as a band on a membrane.

The target in test [2] is VMAT-2 (Mus musculus, UniProt Q8BRU6). As to the kind of experiment: [3H]DHTBZ binding in striatal vesicles prepared from treated mice. The following applies: methamphetamine 4 x 10 mg/kg s.c., 2-h intervals, 1 and 24 h after treatment.
VMAT-2 (Mus musculus, UniProt Q8BRU6), sequence (Q8BRU6 whole entry): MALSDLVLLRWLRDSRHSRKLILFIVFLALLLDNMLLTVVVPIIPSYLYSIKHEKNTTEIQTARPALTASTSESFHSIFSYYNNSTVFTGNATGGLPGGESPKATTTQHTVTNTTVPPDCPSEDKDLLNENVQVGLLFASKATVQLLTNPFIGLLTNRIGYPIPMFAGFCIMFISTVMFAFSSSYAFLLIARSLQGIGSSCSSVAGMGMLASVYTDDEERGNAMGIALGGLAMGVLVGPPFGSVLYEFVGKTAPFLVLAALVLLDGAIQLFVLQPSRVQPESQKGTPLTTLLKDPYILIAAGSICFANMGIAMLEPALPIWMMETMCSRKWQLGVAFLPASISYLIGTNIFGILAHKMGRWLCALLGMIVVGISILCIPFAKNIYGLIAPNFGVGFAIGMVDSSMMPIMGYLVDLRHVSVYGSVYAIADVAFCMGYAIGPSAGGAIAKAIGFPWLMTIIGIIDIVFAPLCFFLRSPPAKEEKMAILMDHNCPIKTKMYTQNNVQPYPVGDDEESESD
Description: Binding of [^3H]DHTBZ was performed essentially as described by Brown et al. (2001a and 2001b) Briefly, 200 μl of the synaptic vesicles preparation (˜6 μg of protein) was incubated in wash buffer in the presence of [^3H]DHTBZ (2 nM final concentration) for 10 min at 25° C. The reaction was terminated by addition of 1 ml cold wash buffer and rapid filtration through Whatman GF/P filters soaked in 0.5% polyethylenimine. Filters were washed three times with ice-cold wash buffer. Nonspecific binding was determined by co incubation with 20 μM TBZ. All protein concentrations were determined by Bio-Rad protein assay (Bio-Rad Inc.)

For the molecule `CN[C@@H](C)Cc1ccccc1` (racemic) [METH, methamphetamine], in the test with VMAT-2 [1], the “VMAT-2 immunoreactivity in the membrane-associated fraction” value is recorded as “increasing”, the “VMAT-2 immunoreactivity in the vesicle preparation” value was “decreased” and the “total VMAT-2 immunoreactivity in synaptosomes” value was “little effect”. For the same molecule, on VMAT-2 [2], the “[3H]DHTBZ binding” value is “rapidly decreased”.
